Molecules are shown by their SMILES.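 A five-concentration, 48-hour dose response in 96-well plates underlies each endpoint, interpolated linearly between surrounding concentrations. GI50 = concentration required for 50% inhibition of growth.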 Active and inactive are the calls of the source. Cut-off read from the data, not from the text of the source: active = GI50 up to about 1.1 µM and inactive = higher.

Common to all, as to experiment: DTP human tumour cell line panel, 48 h
The test system of assay [1] is NCI-H460.
In assay [2] the test system is UACC-62.
Assay [3] has as its system SNB-75.
Assay [4] deals with HOP-92.
For assay [5], the system named is BT-549.
Assay [6] relates to EKVX.
Assay [7] relates to UACC-257.
Assay [8] has as its system OVCAR-5.
In assay [9] the test system is NCI-H522.
Assay [10] deals with IGROV-1.
Assay [11] has as its system TK-10.
Assay [12] concerns MCF7.
Assay [13] concerns HL-60.
In assay [14] the test system is U-251.
Assay [15] concerns ACHN.
The test system of assay [16] is OVCAR-4.
Assay [17] relates to 786-0.
The test system of assay [18] is T47D.
For assay [19], the system named is SR.

Consider `COc1ccc(CCN(C)C(=O)CC(C#N)(c2ccccc2)c2ccc(OC)c(OC)c2)cc1OC` (stereo unspecified), for which the GI50 in [1] was > 100 µM (inactive); in assay [2] it was > 100 µM (inactive); in assay [3] it was > 100 µM (inactive); in assay [4] it was 3.15 µM (inactive); in [5], > 100 µM (inactive); in assay [6], > 100 µM (inactive). In addition, the GI50 was > 100 µM (inactive) in [7]; > 100 µM (inactive) in [8]; > 94.6 µM (inactive) in assay [9]; > 100 µM (inactive) in assay [10]; > 100 µM (inactive) in assay [11]; > 100 µM (inactive) in assay [12]. Further, the GI50 in assay [13], in assay [14], in [15], in assay [16], in assay [17] and in assay [18] was > 100 µM (inactive) in each case.
As for `Cc1ccc(S(=O)(=O)N2CCSCCN(S(=O)(=O)c3ccc(C)cc3)CCN(S(=O)(=O)c3ccc(C)cc3)CC2)cc1`, the GI50 in assay [1] is > 100 µM (inactive); in assay [2], > 100 µM (inactive); in [4], 0.184 µM (active); in [5], 27.8 µM (inactive); in assay [6], 47.5 µM (inactive); in [8], > 100 µM (inactive). Besides, the GI50 was 56.2 µM (inactive) in assay [10]; 59.7 µM (inactive) in assay [12]; > 100 µM (inactive) in assay [13]; 20 µM (inactive) in assay [14]; > 100 µM (inactive) in [16]; 16.7 µM (inactive) in [17]. In [18], the GI50 is 8.75 µM (inactive).
Consider `CC1=C[C@@H]2Cc3nc4cc(Cl)ccc4c(N)c3[C@H](C1)C2`, for which the GI50 in [1] was 9.02 µM (inactive); in assay [2], 14.6 µM (inactive); in assay [3] it was 4.97 µM (inactive); in assay [4], 0.685 µM (active); in assay [5] it was 16.2 µM (inactive); in [6] it was 3.32 µM (inactive). The GI50 was 2.02 µM (inactive) in assay [7]; 4.28 µM (inactive) in assay [8]; 1.76 µM (inactive) in assay [10]; 5.78 µM (inactive) in assay [11]; 10 µM (inactive) in [12]; 15.3 µM (inactive) in assay [13]. Besides, the GI50 was 13.4 µM (inactive) in assay [14]; 10.6 µM (inactive) in assay [15]; 3.99 µM (inactive) in [16]; 6.03 µM (inactive) in [17]; 12.3 µM (inactive) in [18].
Take `O=C1OC(=O)C2CCCC3CCCC1C32` (stereo unspecified): the GI50 in [1], in [2], in [3], in assay [4], in assay [5] and in assay [6] was > 100 µM (inactive) each time. In addition, the GI50 in assay [7], in assay [8], in [9], in assay [10], in assay [11] and in assay [12] was > 100 µM (inactive) throughout. Besides, the GI50 in [13], in assay [14], in assay [15], in assay [16], in assay [17] and in assay [18] was > 100 µM (inactive) throughout.
As for `COc1ccc(OC)c2c1C(=O)C(O)=C(Cl)C2=O`, the GI50 in assay [1], in assay [2], in assay [3], in assay [4], in assay [5] and in [7] was > 100 µM (inactive) throughout. The GI50 in assay [8], in assay [9], in assay [10], in assay [11], in assay [12] and in assay [13] was > 100 µM (inactive) throughout. The GI50 in [14], in assay [15], in assay [16], in assay [17] and in [18] was > 100 µM (inactive) in each case.
Consider `OC(CCN1CCN(CCOC(c2ccccc2)c2ccccc2)CC1)c1ccccc1` (stereo unspecified), for which the GI50 in [1] is 18.6 µM (inactive); in assay [2] it was 11.5 µM (inactive); in [3], 40.9 µM (inactive); in assay [4] it was 22.5 µM (inactive); in [5], 23.8 µM (inactive); in assay [6], 19.7 µM (inactive). For the same compound, the GI50 was 17.9 µM (inactive) in assay [7]; 33.2 µM (inactive) in assay [8]; 17.4 µM (inactive) in [9]; 23.1 µM (inactive) in assay [10]; 22.3 µM (inactive) in [11]; 22.4 µM (inactive) in assay [12]. For the same compound, the GI50 was 16.7 µM (inactive) in [13]; 16.3 µM (inactive) in assay [14]; 27 µM (inactive) in assay [15]; 30.1 µM (inactive) in assay [16]; 18 µM (inactive) in assay [17]; 17.2 µM (inactive) in [18].
In the case of `Cc1ccc(S(=O)(=O)C2=Cc3ccccc3C2(O)c2ccccc2)cc1` (stereo unspecified), the GI50 is 22.7 µM (inactive) in assay [1]; 31 µM (inactive) in [3]; 24 µM (inactive) in assay [5]; 24.9 µM (inactive) in assay [6]; > 10 µM (inactive) in assay [7]; 60.4 µM (inactive) in assay [8]. The GI50 was 21.5 µM (inactive) in [9]; 47.1 µM (inactive) in assay [10]; 35.3 µM (inactive) in assay [11]; 13.2 µM (inactive) in [13]; 26.7 µM (inactive) in assay [14]; 34.3 µM (inactive) in assay [15]. The GI50 in [17] was > 10 µM (inactive); in [19], 22.2 µM (inactive); in assay [18], 34.3 µM (inactive).
Regarding `OC12COc3ccccc3C1Oc1ccccc1C2` (stereo unspecified), the GI50 in assay [2], in assay [3], in assay [4], in assay [5], in assay [6] and in assay [7] was > 100 µM (inactive) in each case. For the same compound, the GI50 in assay [8], in assay [9], in [10], in assay [11], in assay [12] and in assay [14] was > 100 µM (inactive) each time. In addition, the GI50 in [15], in assay [16], in assay [17] and in assay [18] was > 100 µM (inactive) in each case.
Consider `COC(=O)[C@H](Cc1ccccc1)NC(=O)N(CCC#N)CCCCN(CCC#N)C(=O)N[C@@H](Cc1ccccc1)C(=O)OC`, for which the GI50 in assay [1] is > 81.8 µM (inactive); in [2] it was > 100 µM (inactive); in [3], > 27.2 µM (inactive); in assay [4] it was > 100 µM (inactive); in [5], > 100 µM (inactive); in assay [6], > 100 µM (inactive). Moreover, the GI50 in assay [7], in [8], in [9], in [11], in [12] and in assay [14] was > 100 µM (inactive) in each case. In addition, the GI50 in assay [15], in assay [16], in assay [17] and in assay [18] was > 100 µM (inactive) each time.
In the case of `C=CCN1C(=O)CC(=O)N(NC2=NNC3(C(=O)N2)c2ccccc2-c2ccccc23)C1=S`, the GI50 in assay [1] was 26.1 µM (inactive); in assay [2], 28.5 µM (inactive); in assay [3] it was 48.2 µM (inactive); in assay [4], 15.4 µM (inactive); in [5] it was 45 µM (inactive); in [6], 29.4 µM (inactive). The GI50 in [7] is 27.5 µM (inactive); in [8] it was 53.7 µM (inactive); in [9], 32.6 µM (inactive); in assay [10] it was 38.9 µM (inactive); in assay [11] it was 64.1 µM (inactive); in assay [12], 25.8 µM (inactive). Besides, the GI50 is 27.9 µM (inactive) in assay [13]; 38 µM (inactive) in [14]; 34.4 µM (inactive) in assay [15]; 29.4 µM (inactive) in [16]; 38.5 µM (inactive) in assay [17]; 15.6 µM (inactive) in assay [19].
Turning to `Nc1ncnc2c1ccn2COC(CO)CO`, the GI50 is > 100 µM (inactive) in [1]; 37.4 µM (inactive) in assay [2]; > 100 µM (inactive) in assay [3]; > 100 µM (inactive) in assay [4]; > 100 µM (inactive) in assay [5]; > 100 µM (inactive) in assay [6]. Further, the GI50 in assay [7] is > 100 µM (inactive); in assay [8], > 100 µM (inactive); in [9], 54.7 µM (inactive); in assay [10] it was > 100 µM (inactive); in assay [11], > 100 µM (inactive); in assay [12] it was 92 µM (inactive). Besides, the GI50 in assay [13] was 90.6 µM (inactive); in assay [14] it was > 100 µM (inactive); in assay [15], > 100 µM (inactive); in [16], > 100 µM (inactive); in assay [17], > 100 µM (inactive); in assay [18], > 100 µM (inactive).
Regarding `CN(C)CCCNC(=O)CCNC(=O)c1cc(NC(=O)c2cc(NC(=O)c3cc(NC(=O)c4nccn4C)cn3C)cn2C)cn1C`, the GI50 in [1] was > 100 µM (inactive); in [2], > 100 µM (inactive); in [3] it was 54.7 µM (inactive); in [4] it was > 100 µM (inactive); in assay [5], > 100 µM (inactive); in [6], > 100 µM (inactive). In addition, the GI50 in [7] was > 100 µM (inactive); in [8] it was > 100 µM (inactive); in assay [9], 5.47 µM (inactive); in assay [10] it was > 100 µM (inactive); in assay [11] it was > 100 µM (inactive); in [12], > 100 µM (inactive). For the same compound, the GI50 in assay [13] is 18.8 µM (inactive); in [14], 13.4 µM (inactive); in assay [15] it was > 100 µM (inactive); in [17] it was > 100 µM (inactive); in [18] it was 31 µM (inactive).

As a reminder, the GI50 is the concentration at which growth is held to half of that of the control.

(Values after ChEMBL document CHEMBL1201862, “PubChem BioAssay data set” (2004).)
